Laboratory results: the NIST ThermoML archive (doi:10.1021/acs.jced.5b00407)

Legend:
[1] = mn = molality of the nth substance listed, in mol/kg; settings: 101.3 kPa, Liquid; for viscosity: Capillary tube (Ostwald / Ubbelohde) method; for mass density: Vibrating tube method
[2] = refractive index (Na D-line) (dimensionless); mn = molality of the nth substance listed, in mol/kg; settings: 101.3 kPa, Liquid, Standard Abbe refractometry

O=C([O-])[C@H](O)[C@@H](O)[C@H](O[C@@H]1O[C@H](CO)[C@H](O)[C@H](O)[C@H]1O)[C@H](O)CO.[Na+] [sodium lactobionate] + O
Settings | mass density, [1] [kg/m3] | refractive index, [2] | viscosity, [1] [mPa·s]
288.15 K, m1 = 0.0251 | – | – | 1.157
288.15 K, m1 = 0.0502 | 1010.5 | – | 1.177
288.15 K, m1 = 0.0753 | 1015.2 | – | 1.211
288.15 K, m1 = 0.1 | 1020.1 | – | 1.257
288.15 K, m1 = 0.126 | 1024.5 | – | 1.286
288.15 K, m1 = 0.151 | 1029.1 | – | 1.332
288.15 K, m1 = 0.176 | 1034.1 | – | 1.374
288.15 K, m1 = 0.201 | 1039 | – | 1.432
293.15 K, m1 = 0.0251 | – | 1.3331 | 1.018
293.15 K, m1 = 0.0502 | 1009.1 | 1.3344 | 1.036
293.15 K, m1 = 0.0753 | 1013.9 | 1.336 | 1.066
293.15 K, m1 = 0.1 | 1018.9 | 1.3376 | 1.106
293.15 K, m1 = 0.126 | 1023.3 | 1.3392 | 1.132
293.15 K, m1 = 0.151 | 1028.1 | 1.3406 | 1.171
293.15 K, m1 = 0.176 | 1033 | 1.3421 | 1.208
293.15 K, m1 = 0.201 | 1037.7 | 1.3435 | 1.26
298.15 K, m1 = 0.0251 | – | 1.3326 | 0.9041
298.15 K, m1 = 0.0502 | 1007.6 | 1.3339 | 0.9201
298.15 K, m1 = 0.0753 | 1012.6 | 1.3354 | 0.9457
298.15 K, m1 = 0.1 | 1017.7 | 1.337 | 0.9824
298.15 K, m1 = 0.126 | 1022.1 | 1.3385 | 1.006
298.15 K, m1 = 0.151 | 1026.9 | 1.34 | 1.041
298.15 K, m1 = 0.176 | 1031.8 | 1.3415 | 1.074
298.15 K, m1 = 0.201 | 1036.4 | 1.343 | 1.119
303.15 K, m1 = 0.0251 | – | 1.3321 | 0.8091
303.15 K, m1 = 0.0502 | 1006.2 | 1.3334 | 0.8233
303.15 K, m1 = 0.0753 | 1011.2 | 1.3348 | 0.8464
303.15 K, m1 = 0.1 | 1016.4 | 1.3364 | 0.8796
303.15 K, m1 = 0.126 | 1020.8 | 1.3378 | 0.9001
303.15 K, m1 = 0.151 | 1025.5 | 1.3393 | 0.9321
303.15 K, m1 = 0.176 | 1030.3 | 1.3409 | 0.9614
303.15 K, m1 = 0.201 | 1035.1 | 1.3425 | 1.002
308.15 K, m1 = 0.0251 | – | 1.3316 | 0.7289
308.15 K, m1 = 0.0502 | 1004.5 | 1.3328 | 0.7415
308.15 K, m1 = 0.0753 | 1009.7 | 1.3342 | 0.7623
308.15 K, m1 = 0.1 | 1014.9 | 1.3357 | 0.7921
308.15 K, m1 = 0.126 | 1019.4 | 1.3371 | 0.8111
308.15 K, m1 = 0.151 | 1023.9 | 1.3387 | 0.8399
308.15 K, m1 = 0.176 | 1028.8 | 1.3403 | 0.8655
308.15 K, m1 = 0.201 | 1033.5 | 1.342 | 0.9029
313.15 K, m1 = 0.0251 | – | 1.331 | 0.6612
313.15 K, m1 = 0.0502 | 1003.1 | 1.3322 | 0.6729
313.15 K, m1 = 0.0753 | 1008.1 | 1.3335 | 0.692
313.15 K, m1 = 0.1 | 1013.3 | 1.335 | 0.7187
313.15 K, m1 = 0.126 | 1017.8 | 1.3364 | 0.7357
313.15 K, m1 = 0.151 | 1022.1 | 1.338 | 0.7622
313.15 K, m1 = 0.176 | 1027.2 | 1.3397 | 0.7851
313.15 K, m1 = 0.201 | 1031.8 | 1.3415 | 0.8191
318.15 K, m1 = 0.0251 | – | 1.3304 | 0.6029
318.15 K, m1 = 0.0502 | 1001.6 | 1.3316 | 0.6136
318.15 K, m1 = 0.0753 | 1006.5 | 1.3329 | 0.6313
318.15 K, m1 = 0.1 | 1011.5 | 1.3343 | 0.6556
318.15 K, m1 = 0.126 | 1015.9 | 1.3357 | 0.6711
318.15 K, m1 = 0.151 | 1020.5 | 1.3373 | 0.6951
318.15 K, m1 = 0.176 | 1025.3 | 1.3391 | 0.7157
318.15 K, m1 = 0.201 | 1030 | 1.3409 | 0.7469
323.15 K, m1 = 0.0251 | – | 1.3297 | 0.5523
323.15 K, m1 = 0.0502 | 999.8 | 1.3309 | 0.5625
323.15 K, m1 = 0.0753 | 1004.7 | 1.3322 | 0.5789
323.15 K, m1 = 0.1 | 1009.5 | 1.3336 | 0.6009
323.15 K, m1 = 0.126 | 1013.9 | 1.3349 | 0.6151
323.15 K, m1 = 0.151 | 1018.4 | 1.3365 | 0.6372
323.15 K, m1 = 0.176 | 1023.2 | 1.3384 | 0.6565
323.15 K, m1 = 0.201 | 1028 | 1.3404 | 0.6849
